Data set [1] relates to Drosophila. Also noted: method as in PMID 20559435. The note with it: cited from earlier work.
For data set [2], the system named is soluble Aβ and β-amyloid plaque deposits in mice. More on the design: method as in PMID 22323736. The note with it: oral administration, cited from earlier work.
Data set [3] has as its system Aβ. Also noted: method as in 2 sources, ref 16 = [16]; PMID 20230062; doi:10.1021/bi100144m; 16 Taylor M , Moore S , Mayes J , Parkin E , Beeg M , et al ( 2010 ) Development of a proteolytically stable retro-inverso peptide inhibitor of β-amyloid oligomerization as a potential novel treatment ||| ref 5, 52 = [5]; PMID 19605645; doi:10.1523/JNEUROSCI.1071-09.2009; 5 Ma QL , Yang F , Rosario ER , Ubeda OJ , Beech W , et al ( 2009 ) β-amyloid oligomers induce phosphorylation of tau and inactivation of insulin receptor substrate via c-Jun N-terminal kinase signali || [52]; PMID 15590663; doi:10.1074/jbc.M404751200; 52 Yang F , Lim GP , Begum AN , Ubeda OJ , Simmons MR , et al ( 2005 ) Curcumin inhibits formation of amyloid β oligomers and fibrils, binds plaques, and reduces amyloid in vivo . J Biol Chem 280 : 58. The following applies: cited from earlier work.

Details of data set [4]: method as in earlier work. The following applies: no reference given; 53 concern derivatives; cited from earlier work.
Data set [5] deals with AD patients. The note with it: cited from earlier work.
The target in data set [6] is immobilized Aβ(1–42) (Aβ42) monomers, oligomers and fibrils. More on the design: method as in PMID 20230062. The note with it: SPR; cited from earlier work. Background: SPR reads the build-up and loss of mass on a sensor chip optically.
In data set [7] the test system is Aβ42. The data set can be described thus: Thioflavin T (ThT) assay for Aβ fibrils. Format: biochemical. The note with it: ThT, 25 µM Aβ42, 48 h; figure title. The protocol: This method was the same as that published previously. Briefly, 60 µl samples of solutions containing Aβ42 (25 µM), ThT (15 µM) and between 0 and 125 µM RI-OR2 or RI-OR2–TAT, in 10 mM phosphate buffered saline (PBS), pH 7.4, were incubated in sealed, black, clear-bottomed 384-well plates (Corning). ThT fluorescence was monitored every 10 mins (λex = 442 nm, λem = 483 nm) for 48 h at 30°C in a Biotek Synergy 2 plate reader.

For data set [8], the system named is cultured cells. Also noted: method as in PMID 20230062. The following applies: cited from earlier work.
For data set [9], the system named is SHSY-5Y cells. The data set can be described thus: Cell penetration of fluorescein-tagged peptides, microscopy. The following applies: 1 µM.
In data set [10] the test system is APP/PS1 transgenic mice. The data set can be described thus: Blood brain barrier penetration and brain localisation after i.p. injection. Format: in vivo, mouse. The following applies: 100 nmol/kg i.p., 1 h, 17-month old APP/PS1 mice. On the procedure:
APPswe/PS1ΔE9 mice with a C57Bl/6 background (APP/PS1 mice) were obtained from the Jackson lab (http://research.jax.org/repository/alzheimers.html). […] To look at the effects of RI-OR2-TAT on mouse brain pathology (experiment 2), 8 female 10-months-old APP/PS1 mice were used. The animals were housed in single cages in a temperature controlled holding room (21.5°C±1) with 12∶12 h light and dark cycle. Food and water was available ad libitum.
The animals were then housed in a dark room. After 1 h, the animals were anaesthetised with isoflurane and sodium barbiturate (Dolethal, Bayer, Germany), transcardially perfused and the brains were retrieved and fixed in 4% ice cold paraformaldehyde.
For experiment 1 (BBB penetration), individual sections were incubated with the following primary antibodies at 4°C overnight: anti-Aβ (1∶200 dilution, Invitrogen, 71–5800), or anti-Iba 1 (1∶1000 dilution, Wako 016-20001, Germany). Sections were then stained with goat anti-rabbit Alexa Fluor 555 (1∶150 dilution, A21428 Invitrogen) for 1 h.
All sections were visualized using an Axio Scope 1 fluorescence microscope (Zeiss, Germany). For quantification, two images per section were taken from the cortex area with a 10X objective for 8-oxo guanine and β-amyloid staining, and a 100X objective for Iba1 staining, with a minimum of 5 sections visualized per animal. […]

Regarding `O=C1C=C(N[C@@H](Cc2c[nH]c3ccccc23)C(=O)O)C(=O)c2ccccc21` [NQTrp, 1,4-naphthoquinon-2-yl-L-tryptophan], the “phenotypic changes in Drosophila AD model” value in data set [1] was “reversed phenotypic changes in Drosophila”. In the case of `C=C(c1ccc(C(=O)O)cc1)c1cc2c(cc1C)C(C)(C)CCC2(C)C` [bexarotene], in [2] (apoE-mediated mechanisms), the “clearance of soluble Aβ” value is recorded as “enhance clearance of soluble Aβ”. In addition, in data set [2], the β-amyloid plaque deposits result is listed as “reduce β-amyloid plaque deposits in mice”. `COc1cc(/C=C/C(=O)CC(=O)/C=C/c2ccc(O)c(OC)c2)ccc1O` [curcumin, reference compound]: the “inhibition of Aβ aggregation” value in data set [3] is on record as “effective inhibitor of Aβ aggregation”. In data set [4], the bioavailability result is listed as “poor bioavailability”.

With “AN1792: pre-aggregated Aβ42, first clinical trial of immunisation”, in data set [5] (human, in vivo), the “adverse effects in first clinical trial” value is “adverse effects involving detrimental T-cell-mediated brain inflammation”.

Usually Kd stands for the concentration at which binding is half-saturated. For Ac-rGffvlkGr-NH2 [RI-OR2], in data set [3], the “inhibition of Aβ oligomer and fibril formation in vitro” value was “blocks the formation of Aβ oligomers and fibrils in vitro”. In addition, the Kd in data set [6] was 9 to 29 µM. For the same compound, the “inhibition of Aβ42 aggregation (Fig. 1)” value in data set [7] is recorded as “inhibit the aggregation of Aβ42”. Besides, the “effect on Aβ toxicity to cultured cells” value in data set [8] is “inhibits the toxic effects of Aβ on cultured cells”.

Regarding Solanezumab: Solanezumab (Eli Lilly), in [5] (mild-to-moderate AD, ref presented at CTAD 2012), the “Phase III trial outcome” value is “did not achieve key Phase III trial goals of improved cognition and function”. Consider fluorescein-rGffvlkGr-NH2 [Flu-RI-OR2], for which the “cell uptake (fluorescence localisation)” value in data set [9] (1 h) is on record as “remained in the culture medium”. With “fluorescein-rGffvlkGrrrrqrrkkrGy-NH2 [Flu-RI-OR2-TAT]”, the “cell uptake (fluorescence localisation)” value in data set [9] (10 mins) is “build up of fluorescence inside the cells”. Also, in data set [10] (AlexaFluor 555 anti-Iba 1), the “localisation relative to activated microglia” value was “found inside activated microglial cells”. Besides, the “localisation relative to amyloid plaques” value in data set [10] (cerebral cortex, AlexaFluor 555 anti-Aβ) is on record as “co-localised with amyloid plaques”.

(Values after paper PMC3561363, “A Novel Retro-Inverso Peptide Inhibitor Reduces Amyloid Deposition, Oxidation and Inflammation and Stimulates Neurogenesis in the APPswe/PS1ΔE9 Mouse Model of Alzheimer’s Disease” (PLoS ONE, 2013).)
